Test systems include LOX IMVI melanoma; SN12C renal; HOP-62 NSCLC; NCI/ADR-RES ovarian; CCRF-CEM leukemia; OVCAR-5 ovarian; MDA-MB-435; OVCAR-3 ovarian; SNB-19 CNS; 786-0 renal; UACC-257 melanoma; SR leukemia.
Test in all cases: NCI tumour cell line growth inhibition, 48 h

Structures are written as SMILES.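 Where inhibition never reached the appropriate level, the endpoint shown equals the highest concentration tested. Otherwise, values were interpolated linearly from a five-concentration, 48-hour dose response in 96-well plates. TGI marks complete inhibition of growth.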

For the molecule `C/C(=N/O)c1cccc(Nc2nc3ccccc3c3[nH]c4ccccc4c23)c1`, the TGI is 6.06 µM with LOX IMVI melanoma; 13.4 µM in the assay on SN12C renal; 8.83 µM with HOP-62 NSCLC; 20 µM in the assay with NCI/ADR-RES ovarian; over 100 µM in the assay with CCRF-CEM leukemia; 9.27 µM with OVCAR-5 ovarian. Moreover, the TGI in the assay with MDA-MB-435 is 7.52 µM; in the assay on OVCAR-3 ovarian, 5.1 µM; with SNB-19 CNS it was 19.2 µM; in the assay on 786-0 renal, 6.96 µM; in the assay with UACC-257 melanoma it was 17.6 µM; with SR leukemia, 3.85 µM.

In the case of `COC(=O)c1c(O)ccc2c1c1c(n2C)C(=O)c2ccccc2C1=O`, the TGI in the assay on LOX IMVI melanoma was over 100 µM; in the assay with SN12C renal it was over 100 µM; in the assay on HOP-62 NSCLC it was 28 µM; in the assay with NCI/ADR-RES ovarian, over 100 µM; in the assay on CCRF-CEM leukemia, 51.9 µM; in the assay on OVCAR-5 ovarian, over 100 µM. The TGI in the assay with MDA-MB-435 was over 100 µM; in the assay with OVCAR-3 ovarian, over 100 µM; in the assay with SNB-19 CNS, 50.9 µM; with 786-0 renal, 57 µM; with UACC-257 melanoma it was over 100 µM; in the assay with SR leukemia, over 100 µM.

Take `CC1(C)CCOC(=O)C(Cl)CC1Cl` (stereo unspecified): the TGI in the assay on LOX IMVI melanoma, with SN12C renal, in the assay on HOP-62 NSCLC, in the assay with NCI/ADR-RES ovarian, in the assay with CCRF-CEM leukemia and in the assay on OVCAR-5 ovarian was over 100 µM each time. In addition, the TGI in the assay with MDA-MB-435, with OVCAR-3 ovarian, in the assay on SNB-19 CNS, in the assay on 786-0 renal, in the assay on UACC-257 melanoma and in the assay with SR leukemia was over 100 µM in each case.

For the origin of these results see PubChem BioAssay (NCI).
